# Legend:
# [1] = test system: proteins in cell lysate of HCT116; assay: Protease digestion assay of HCT116 cell lysate, SDS-PAGE with Coomassie Brilliant Blue staining; assay type: biochemical, human; details: UCS15A 0-300 μmol/L, 37° C. for 12 hours, endogenous protease
# Method: (§1) By using Dulbecco's modification of Eagle's medium (DMEM) containing 10% fetal bovine serum, human colon tumor cell line HCT116 (ATCC number CCL-247) was cultured on 100 mm diameter dishes for cell culturing in a CO2 incubator at 37° C. under 5% CO2 condition, and proliferated by subculture with division into five portions every 3 days. The culture medium was removed from three HCT116 cell dishes on the third day from the subculture, and cells were washed by addition and successive removal of 10 ml of ice-cooled PBS. To these cells, 10 mL of RSB (10 mmol/L Tris-hydrochloride pH7.6, 10 mmol/L NaCl, 1.5 mmol/L MgCl2) having a low osmotic pressure was added. After the cells were put on ice for 10 minutes to allow expansion, the cells were detached from the dishes and put into 15 mL volume Dounce homogenizer together with the already added RBS. The cells were disrupted by 50 strokes of a pestle. This cell lysate was centrifuged at 4° C., 15,000 rpm for 30 minutes. The obtained supernatant was collected, and divided into ten 1 mL aliquots.
# UCS15A was isolated and purified from Streptmyces actinobacterium, according to the descriptions in Japanese Published Unexamined Patent Application No. 58-116686, and a dimethylsulfoxide (DMSO) solution at a concentration of 10 mmol/L was prepared. […]
# Sam68 = biological target: T1, Sam68 (Homo sapiens, UniProt Q07666); assay: Protease digestion assay with specific detection of Sam68 by Western blotting; assay type: biochemical; details: HCT116 cell lysate, 37° C. for 12 hours
# T1 construct: endogenous in cells; host or cells: HCT116 (ATCC CCL-247) cell lysate
# Method: as §1, with “The obtained supernatant was collected, and divided into ten 1 mL aliquots.” left out
# Sam68 in the cell lysate was detected by Western blotting as described below. […]
# When the protease digestion assay described in (2) was conducted, a protease inhibitor cocktail (Complete; manufactured by Roche) which can inhibit wide variety of proteases was added along with UCS15A, and the same reaction was proceeded. After the electrophoresis, Sam68 was detected by Western blotting in a same manner to that of (3). […]
# bone resorption = details: cited from earlier work
# [2] = test system: signal transduction of tyrosine kinase src; details: cited from earlier work
# src = src (Homo sapiens, UniProt P12931); details: cited from earlier work
# src and Sam68 = src and Sam68 (Homo sapiens, UniProt Q07666); details: cited from earlier work
# Sequence of src and Sam68 (Q07666 whole entry, species assumed): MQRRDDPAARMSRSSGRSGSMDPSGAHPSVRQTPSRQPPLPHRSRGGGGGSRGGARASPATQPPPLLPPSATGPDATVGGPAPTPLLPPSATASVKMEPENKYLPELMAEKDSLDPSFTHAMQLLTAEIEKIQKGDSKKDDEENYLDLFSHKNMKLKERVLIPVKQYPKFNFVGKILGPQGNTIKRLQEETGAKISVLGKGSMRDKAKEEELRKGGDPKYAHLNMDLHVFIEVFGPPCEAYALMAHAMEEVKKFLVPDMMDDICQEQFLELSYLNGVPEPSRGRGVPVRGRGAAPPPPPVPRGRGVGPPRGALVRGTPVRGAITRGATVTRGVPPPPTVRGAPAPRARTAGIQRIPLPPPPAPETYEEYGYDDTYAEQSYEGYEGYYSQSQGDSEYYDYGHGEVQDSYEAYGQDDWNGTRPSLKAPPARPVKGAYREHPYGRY
# T1 sequence (Q07666 whole entry): as the sequence (Q07666 whole entry, species assumed) above
substance,measurement,setting,value
UCS15A,change of protein amounts in the cell lysate (Coomassie Brilliant Blue stained gel),[1],"Several proteins, which decreased their amounts with the increase of UCS15A concentration, were observed"
same,amount of Sam68 in the cell lysate (Western blotting),"Sam68; UCS15A 0-300 μmol/L, endogenous protease, without protease inhibitor",the amount of Sam68 in the cell lysate decreased with the increase of the UCS15A concentration
same,amount of Sam68 in the cell lysate with protease inhibitor (Western blotting),Sam68; protease inhibitor cocktail (Complete) added along with UCS15A,the decrease of the amount of Sam68 in the cell lysate was inhibited by the addition of a protease inhibitor
same,inhibitory activity on bone resorption,bone resorption,has an inhibitory activity on bone resorption
same,inhibition of signal transduction of tyrosine kinase src,[2],inhibit the signal transduction of tyrosine kinase src
same,inhibition of enzyme activity of src,src,not to inhibit the enzyme activity of src
same,inhibition of binding between src and Sam68,src and Sam68,specifically inhibit the binding between src and Sam68
